Columns and labels:
Type in all cases: binding
lysozyme human = biological target: T1, lysozyme human (Homo sapiens, UniProt P61626); experiment: intact protein MS and MS/MS; conditions: covalent; lysine adduct (FDP)
T1 construct: gene LYZ; commercial protein, mature
T1 sequence (P61626 19-148): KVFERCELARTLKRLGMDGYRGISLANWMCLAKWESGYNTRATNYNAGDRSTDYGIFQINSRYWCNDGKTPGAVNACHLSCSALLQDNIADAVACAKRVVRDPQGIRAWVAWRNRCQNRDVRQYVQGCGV

[1] = biological target: T2, bovine serum albumin (BSA) (Bos taurus, UniProt P02769); experiment: in-gel fluorescence after thiol-FITC addition to the adduct; conditions: covalent; lysine adduct (FDP); 12 h
T2 construct: gene ALB; commercial native protein, mature

lysozyme chicken = biological target: T3, lysozyme chicken (Gallus gallus, UniProt P00698); experiment: intact protein MS and MS/MS; conditions: covalent; lysine adduct (FDP)
T3 construct: gene LYZ
T3 sequence (P00698 19-147): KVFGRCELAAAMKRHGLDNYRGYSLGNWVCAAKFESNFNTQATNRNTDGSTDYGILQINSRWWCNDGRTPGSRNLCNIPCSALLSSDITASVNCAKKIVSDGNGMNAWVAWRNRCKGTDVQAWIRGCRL

T2 sequence (P02769 25-607): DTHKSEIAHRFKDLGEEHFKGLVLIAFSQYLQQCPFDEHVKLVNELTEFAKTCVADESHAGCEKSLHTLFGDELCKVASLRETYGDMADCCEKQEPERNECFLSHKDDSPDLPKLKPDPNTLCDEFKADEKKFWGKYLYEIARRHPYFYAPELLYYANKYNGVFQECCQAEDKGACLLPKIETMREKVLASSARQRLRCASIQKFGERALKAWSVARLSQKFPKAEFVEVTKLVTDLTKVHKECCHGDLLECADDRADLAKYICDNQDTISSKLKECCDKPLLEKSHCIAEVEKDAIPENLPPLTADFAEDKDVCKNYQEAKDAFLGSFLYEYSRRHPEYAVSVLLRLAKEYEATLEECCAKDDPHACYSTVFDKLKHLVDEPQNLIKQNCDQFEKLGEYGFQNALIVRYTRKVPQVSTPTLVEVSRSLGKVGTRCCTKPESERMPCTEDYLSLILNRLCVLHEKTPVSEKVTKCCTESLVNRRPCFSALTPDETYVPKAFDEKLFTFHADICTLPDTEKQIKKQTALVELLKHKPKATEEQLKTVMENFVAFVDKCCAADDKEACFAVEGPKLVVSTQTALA

C=CC=O [acrolein]
intact protein MS and MS/MS (lysozyme human): ribonuclease A, lysozyme chicken, lysozyme human, β-lactoglobulin, and apo-Transferrin | in-gel fluorescence after thiol-FITC addition to the adduct [1]: formation of FDP-lysine and labeling of Apo-transferrin, BSA, and myoglobin with FITC fluorophore | intact protein MS and MS/MS (lysozyme chicken): ribonuclease A, lysozyme chicken, lysozyme human, β-lactoglobulin, and apo-Transferrin
